Laboratory results: patent publication US20250099455A1, “TREATMENT FOR CONGESTIVE HEART FAILURE” (FibroGen, Inc., priority 2022, published 2025)
Entries after “also recorded” stand apart in the source; their conditions may differ. Read-outs that look alike come from different tables or passages of the source.

Key:
[1] = PK profile in monkeys; type: in vivo, monkey; details: for bioavailability: po
[2] = tested on: congestive heart failure subsequent to myocardial infarction; assay: Rat CHF subsequent to myocardial infarction, delayed treatment (Example 2); type: in vivo
Experimental: The effect of delayed treatment with the compound of Formula I on cardiac function in congestive heart failure (CHF) was studied by inducing CHF subsequent to MI. Four groups of rats (n=11-12) were subjected to MI by 30 minute ligation of the left coronary artery followed by reperfusion. In a sham group, rats underwent a similar surgical procedure except that the left coronary artery was not occluded. Cardiac function was measured in one group at 28 days post-MI (Baseline). In the remaining MI groups, dosing with vehicle or test article was initiated on Day 28. Rats were orally dosed every other day with vehicle, 6 mg/kg or 20 mg/kg compound from day 28 until day 54 post-MI. At 56 days post-MI, cardiac function, heart weight and complete blood count (CBC) were measured. • Male Sprague Dawley rats • Ligation of left coronary artery for 30 minutes followed by reperfusion • Post-ligation recovery for 28 days • Cardiac function 28 days after ischemia-reperfusion using a Millar pressure-volume catheter inserted in the left ventricle via the carotid artery • Record pressure-volume loops over several cardiac cycles and derived cardiac function parameters

[3] = tested on: congestive heart failure subsequent to myocardial infarction; assay: Acute myocardial ischemia induced HF, duration of administration (regimens); type: in vivo, rat
[4] = tested on: congestive heart failure subsequent to myocardial infarction; assay: Rat CHF subsequent to myocardial infarction, every other day dosing (Example 1); type: in vivo
Experimental: The effect of the compound of Formula I on cardiac function in congestive heart failure (CHF) was studied by inducing CHF subsequent to myocardial infarction (MI). Three groups of rats (n=12) were subjected to MI by 30 minute ligation of the left coronary artery followed by reperfusion. In a sham group, rats underwent a similar surgical procedure except that the left coronary artery was not occluded. Treatment with the compound of Formula I was initiated 2 days after reperfusion. In the MI groups, rats were dosed orally every other day with vehicle, 6 mg/kg or 20 mg/kg compound from day 2 to day 26 post MI. In the sham group, rats were dosed with vehicle on the same schedule. At 28 days post-MI, cardiac function, heart weight, and complete blood count (CBC) were measured. Histomorphometric analysis was performed on cardiac sections to quantify collagen deposition with picrosirius red staining (PSR), remodeling with hematoxylin and eosin staining and blood vessel number with immunohistochemistry for smooth muscle α-actin. • Male Sprague Dawley rats • Ligation of left coronary artery for 30 minutes followed by reperfusion • Post-ligation recovery for 28 days • Cardiac function 28 days after ischemia-reperfusion using a Millar pressure-volume catheter inserted in the left ventricle via the carotid artery • Record pressure-volume loops over several cardiac cycles and derived cardiac function parameters

[5] = tested on: diastolic dysfunction HF in obese ZSF1 rats; assay: ZSF1 model of heart failure with preserved ejection fraction (HFpEF), monotherapy; type: in vivo, rat
From the text: This study determined the effects of the compound of Formula I on cardiac function after 16 weeks of treatment in male obese ZSF1 rats.
Lean ZSF1 rats were used as controls.
The obese ZSF1 rat was developed by crossing diabetic Zucker fatty rats with spontaneously hypertensive heart failure (SHHF) rats
• Hypertension • Impaired renal function • Obesity • Type 2 diabetes • Insulin resistance, hyperinsulinemia • Hypertriglyceridemia, • Hypercholesterolemia

[6] = tested on: coronary artery (isolated heart preparation); assay: Coronary artery vasodilation in an isolated heart preparation
[7] = Tissue distribution in mice; type: in vivo, mouse; details: for Compound of Formula 1 (μg/mL or μg/g): male Swiss Webster mice, single iv dose 60 mg/kg; for Kp at 4 h / Kp at 8 h: male, Swiss Webster, mouse, mice, single iv 60 mg/kg, read-out: Tissue/plasma ratio
Experimental: • N=3/time point, male Swiss Webster mice, single iv dose, 60 mg/kg Compound of Formula I

[8] = tested on: permanent myocardial ischemia induced HF; assay: Permanent myocardial ischemia induced HF; type: in vivo, rat; details: 6, 20 mg/kg daily, 4 weeks; at both doses
[9] = both sexes, monkey, in vivo, oral, monkeys, males and females
[10] = both sexes, monkey, in vivo, monkeys, males and females
[11] = in vivo, monkey, PK summary table
[12] = delayed administration, 6, 20 mg/kg QOD, 4 weeks
[13] = delayed: 6 or 20 mg/kg oral QOD day 28-54 post-MI, 56 days post-MI
[14] = delayed: 6 or 20 mg/kg oral QOD day 28-54 post-MI, 56 days post-MI, vs vehicle
[15] = 20 mg/kg daily for 7, 14 or 28 days
[16] = 6 or 20 mg/kg oral QOD day 2-26 post MI, 28 days post-MI
[17] = 6 or 20 mg/kg oral QOD day 2-26 post MI, 28 days post-MI, vs vehicle
[18] = histomorphometry of left ventricle, QOD dosing, 28 days

Cmax [1, 9]: 10900 ± 3700 ng/mL
Tmax [1, 9]: 2.6 ± 1.6 h
AUC(0-inf) [1, 10]: 180 ± 68 µg·h/mL
AUC(0-t) [1, 10]: 176 ± 67 µg·h/mL
clearance [1, 10]: 0.433 mL/min/kg
half-life [1, 10]: 34.6 ± 9.5 h
Vd ([1]; both sexes, monkey, in vivo, monkeys, males and females, read-out: Vss): 0.184 ± 0.028 L/kg
Tmax ([1]; in vivo, oral, monkey, PK summary table): ~1 h
clearance [1, 11]: 0.517 to 0.667 mL/min/kg
half-life [1, 11]: 22 to 36 h
Systemic clearance compared with other species ([1]; monkey vs rats (slower than CL in dogs)): comparable to those in rats
Dose proportional ([1]; monkey, 10-60 mg/kg): Yes
Accumulation (after multiple dosing) ([1]; monkey, daily dosing, compared to Day 1 exposure): 2-3 fold higher
bioavailability ([1]; monkey, in vivo, monkeys, read-out: Oral bioavailability (Oral % F)): 36 to 48%
bioavailability ([1]; monkey, in vivo, monkeys, read-out: Oral bioavailability, group mean): 42 to 47%
Dose proportional ([1]; monkey, up to 150 mg/kg): less than dose
Dose proportionality of compound exposure ([1]; monkeys): increased dose proportionally
Vss relative to plasma volume ([1]; monkeys): higher than plasma volume
Sex difference in PK ([1]; monkeys, compound exposure or key PK parameters): no marked sex difference and No
Compound of Formula 1 (μg/mL or μg/g) ([7]; Colon, 4 h post dose): 12.9 ± 2.7 μg/mL or μg/g
Compound of Formula 1 (μg/mL or μg/g) ([7]; Colon, 8 h post dose): 16.1 ± 6.3 μg/mL or μg/g
Compound of Formula 1 (μg/mL or μg/g) ([7]; Duodenum, 4 h post dose): 19.1 ± 5.6 μg/mL or μg/g
Compound of Formula 1 (μg/mL or μg/g) ([7]; Duodenum, 8 h post dose): 21.8 ± 4.1 μg/mL or μg/g
Compound of Formula 1 (μg/mL or μg/g) ([7]; Heart, 4 h post dose): 10.4 ± 4.6 μg/mL or μg/g
Compound of Formula 1 (μg/mL or μg/g) ([7]; Heart, 8 h post dose): 7.4 ± 2.1 μg/mL or μg/g
Compound of Formula 1 (μg/mL or μg/g) ([7]; Kidney, 4 h post dose): 9.2 ± 3.4 μg/mL or μg/g
Compound of Formula 1 (μg/mL or μg/g) ([7]; Kidney, 8 h post dose): 7.2 ± 1.9 μg/mL or μg/g
Compound of Formula 1 (μg/mL or μg/g) ([7]; Liver, 4 h post dose): 40.2 ± 7.2 μg/mL or μg/g
Compound of Formula 1 (μg/mL or μg/g) ([7]; Liver, 8 h post dose): 38.4 ± 4.6 μg/mL or μg/g
Compound of Formula 1 (μg/mL or μg/g) ([7]; Plasma, 4 h post dose): 56.6 ± 10.6 μg/mL or μg/g
Compound of Formula 1 (μg/mL or μg/g) ([7]; Plasma, 8 h post dose): 43.3 ± 11.0 μg/mL or μg/g
Kp at 4 h ([7]; Colon, 4 h post dose): 0.23
Kp at 8 h ([7]; Colon, 8 h post dose): 0.37
Kp at 4 h ([7]; Duodenum, 4 h post dose): 0.34
Kp at 8 h ([7]; Duodenum, 8 h post dose): 0.5
Kp at 4 h ([7]; Heart, 4 h post dose): 0.18
Kp at 8 h ([7]; Heart, 8 h post dose): 0.17
Kp at 4 h ([7]; Kidney, 4 h post dose): 0.16
Kp at 8 h ([7]; Kidney, 8 h post dose): 0.17
Kp at 4 h ([7]; Liver, 4 h post dose): 0.71
Kp at 8 h ([7]; Liver, 8 h post dose): 0.89
Kp at 4 h ([7]; Plasma, 4 h post dose): 1
Kp at 8 h ([7]; Plasma, 8 h post dose): 1
SMILES: CC(C)(CC(=O)O)NC(=O)c1nc(C#N)c2cc(Oc3ccccc3)ccc2c1O [Formula I, 3-[(1-cyano-4-hydroxy-7-phenoxy-isoquinoline-3-carbonyl)-amino]-3-methyl-butyric acid]
diastolic function [2, 12]: Some improvement in diastolic
systolic function [2, 12]: improved systolic function (ejection
cardiac hypertrophy [2, 13]: improved; also recorded: Some improvement in diastolic
dPdtmax [2, 13]: improved
end-diastolic volume [2, 13]: improved
hematocrit [2, 13]: no significant effect; also recorded: no erythropoietic effect
hemoglobin level [2, 13]: no significant effect; also recorded: no erythropoietic effect
relaxation time [2, 13]: improved; also recorded: improvement
ejection fraction [2, 14]: significantly improved; also recorded: improvement; also recorded: fraction improved at both doses)
end-systolic volume [2, 14]: significantly improved; also recorded: improvement
cardiac contractility ([2]; started 28 days after MI, every other day for 28 days): improvement
collagen deposition [3, 15]: All regimens reduced collagen
diastolic function [3, 15]: 14 and 28 days regimens improved
systolic function [3, 15]: 14 and 28 days regimens improved
cardiac hypertrophy ([3]; 20 mg/kg daily, 14 and 28 days regimens): reduced cardiac hypertrophy
collagen deposition ([4]; 6, 20 mg/kg QOD, 4 weeks): reduced; also recorded: reduction in cardiac hypertrophy
ESPVR slope [4, 16]: normalized
circulating hemoglobin level [4, 16]: did not produce a concomitant significant increase; also recorded: without any concomitant rise
other CBC parameters [4, 16]: did not produce a concomitant significant increase in circulating hemoglobin level or have a significant effect
arterial elastance [4, 17]: significantly improved
cardiac hypertrophy [4, 17]: significantly improved; also recorded: significant improvement; also recorded: reduced; also recorded: reduction in cardiac hypertrophy
cardiac output [4, 17]: significantly improved; also recorded: significant improvement
ejection fraction [4, 17]: significantly improved; also recorded: significant improvement; also recorded: improved at both doses)
end-diastolic pressure [4, 17]: significantly improved
end-systolic pressure [4, 17]: significantly improved
end-systolic volume [4, 17]: significantly improved; also recorded: significant improvement
relaxation time [4, 17]: significantly improved; also recorded: significant improvement
stroke volume [4, 17]: significantly improved; also recorded: significant improvement
stroke work [4, 17]: significantly improved; also recorded: significant improvement
cardiac contractility ([4]; every day or every other day for 28 days): significant improvement
hypervascularization in the peri-infarct area [4, 18]: significant reduction
left ventricular wall thinning / wall thickness [4, 18]: prevention of ventricular wall thinning; also recorded: preserved
hypertension ([5]; 20 mg/kg QOD, 16 weeks): Significant stabilization of
diastolic function ([5]; 20 mg/kg QOD, 16 weeks, end-diastolic pressure, left atrium weight, relaxation time, dp/dt minimum): improved; also recorded: Significant improvement in
blood pressure (mean, diastolic, systolic) ([5]; monotherapy): normalized
coronary artery vasodilation (coronary perfusion pressure, coronary resistance) [6]: induced
cardiac hypertrophy [8]: Non-significant reduction in cardiac
collagen deposition [8]: Non-significant reduction in cardiac
